From patent US8173668B1 (Alcon Research, Ltd., priority 2007, dated 2012)

System: conscious ocular hypertensive cynomolgus monkey eyes
Experiment: IOP response in lasered (hypertensive) eyes of conscious cynomolgus monkeys, topical ocular
Format: in vivo
Method: Intraocular pressure (IOP) is determined with an Alcon Pneumatonometer (Alcon Laboratories, Inc., Fort Worth, Tex.) after light corneal anesthesia with 0.1% proparacaine. Right eyes are hypertensive as a result of laser trabeculoplasty. After a baseline IOP measurement, test compound is instilled in the right eyes only of 8-10 cynomolgus monkeys. Vehicle is instilled in the right eyes of 5-6 additional animals. Subsequent IOP measurements are taken at 1, 3, and 6 hours. IOP measurements are also taken on left eyes (normotensive and untreated) at each of these time points. The percent change in IOP from baseline is determined for each animal for every IOP measurement (Sharif et al. J. Ocular Pharmacol. Ther. 17: 305-317, 2001; May et al., J Pharmacol Exp Ther. 306: 301-309, 2003; Sharif et al. Invest. Ophthalmol. Vis. Res. 47: 4001-4010, 2006). Group mean and standard error of the mean (SEM) are calculated for each time point. […] In cases where the compound of invention has poor ocular bioavailability, the compound may need to be administered intracamerally or intravitreally in order to observe the IOP-lowering efficacy.
The IOP-lowering effect was slow to develop but significant IOP reduction was observed even 3 hours post-dosing with maximum ocular hypotension observed 16-48 hours post-dosing (Tables 6-8; FIGS. 3b-5).

With CNC(=O)c1ccc(/C=C/C(=O)NCC(=O)N(C)c2ccc(Cl)c(COc3cccc4c(OCc5ccccn5)cc(C)nc34)c2Cl)cc1 [FR-190997] the “% Change in IOP” value (Study 1, 30 μg topical ocular, Dose 1/1 hr) was −4.6 ± 4.4%, the “% Change in IOP” value (Study 1, 30 μg topical ocular, Dose 1/3 hr) was −16.4 ± 5.3% and the “% Change in IOP” value (Study 1, 30 μg topical ocular, Dose 1/6 hr) was −34.5 ± 7.5%. For the same compound, the “% Change in IOP” value (Study 1, 30 μg topical ocular, Dose 2/16 hr) was −51.6 ± 5.4%, the “% Change in IOP” value (Study 1, 30 μg topical ocular, Dose 2/40 hr) was −35.5 ± 6.3% and the “% Change in IOP” value (Study 1, 30 μg topical ocular, Dose 2/132 hr) was −3.5 ± 3.7%. For the same compound, the “% Change in IOP” value (Study 2, 3 μg topical ocular, Dose 1/24 hr) was −25.9 ± 0.6%, the “% Change in IOP” value (Study 2, 3 μg topical ocular, Dose 1/48 hr) was −19.7 ± 1.9% and the “% Change in IOP” value (Study 2, 3 μg topical ocular, Dose 1/120 hr) was −7.7 ± 0.8%. The “% Change in IOP” value (Study 3, 10 μg topical ocular, Dose 1/24 hr) was −27.2 ± 0.1%, the “% Change in IOP” value (Study 3, 10 μg topical ocular, Dose 1/48 hr) was −32.5 ± 2.4% and the “% Change in IOP” value (Study 3, 10 μg topical ocular, Dose 1/120 hr) was −9.7 ± 0.6%. The “% Change in IOP” value (Table 8 Study 1, 300 μg topical ocular, Dose 1/1 hr) was 2.0 ± 0.6%, the “% Change in IOP” value (Table 8 Study 1, 300 μg topical ocular, Dose 1/3 hr) was −6.9 ± 2.9% and the “% Change in IOP” value (Table 8 Study 1, 300 μg topical ocular, Dose 1/6 hr) was −24.8 ± 10.3%. For the same compound, the “% Change in IOP” value (Table 8 Study 2, 300 μg topical ocular, Dose 1/1 hr) was 6.7 ± 2.1%, the “% Change in IOP” value (Table 8 Study 2, 300 μg topical ocular, Dose 1/3 hr) was −7.5 ± 3.1% and the “% Change in IOP” value (Table 8 Study 2, 300 μg topical ocular, Dose 1/6 hr) was −15.4 ± 5.7%. The “% Change in IOP” value (Table 8 Study 3, 600 μg topical ocular, Dose 1/1 hr) was −0.4 ± 0.2%, the “% Change in IOP” value (Table 8 Study 3, 600 μg topical ocular, Dose 1/3 hr) was −10.6 ± 4.4% and the “% Change in IOP” value (Table 8 Study 3, 600 μg topical ocular, Dose 1/6 hr) was −27.7 ± 11.3%. The “% Change in IOP” value (Table 8 Study 4, 600 μg topical ocular, Dose 1/1 hr) was 4.9 ± 1.6%, the “% Change in IOP” value (Table 8 Study 4, 600 μg topical ocular, Dose 1/3 hr) was −4.6 ± 2.0% and the “% Change in IOP” value (Table 8 Study 4, 600 μg topical ocular, Dose 1/6 hr) was −18.4 ± 6.9%. The “% Change in IOP” value (Table 8 Study 4, 600 μg topical ocular, Dose 2/16 hr) was −37.9 ± 14.1%, the “% Change in IOP” value (Table 8 Study 4, 600 μg topical ocular, Dose 2/40 hr) was −31.2 ± 11.7% and the “% Change in IOP” value (Table 8 Study 4, 600 μg topical ocular, Dose 2/64 hr) was −16.1 ± 6.1%. The “lowering of IOP” value (topical ocular, 0.03-600 μg/eye) was “significant dose-dependent lowering of IOP”.
